Source: ChEMBL document CHEMBL2021790, “Pyridone methylsulfone hydroxamate LpxC inhibitors for the treatment of serious gram-negative infections” (J Med Chem, 2012)
≈ marks a conversion by molar mass, not a printed value.

Legend:
Pseudomonas aeruginosa [1] = experiment: Antimicrobial activity against wild type Pseudomonas aeruginosa PA01 after 16 to 20 hrs by 2-fold microbroth dilution method; type: functional
[2] = biological target: T1, UDP-3-O-acyl-N-acetylglucosamine deacetylase (Pseudomonas aeruginosa (strain ATCC 15692 / PAO1 / 1C / PRS 101 / LMG12228), UniProt P47205); experiment: Inhibition of Pseudomonas aeruginosa LpxC expressed in Escherichia coli using UDP-3-O-N-acetylglucosamine substrate measured after 30 mins by mass spectrometry
T1 sequence (P47205 whole entry): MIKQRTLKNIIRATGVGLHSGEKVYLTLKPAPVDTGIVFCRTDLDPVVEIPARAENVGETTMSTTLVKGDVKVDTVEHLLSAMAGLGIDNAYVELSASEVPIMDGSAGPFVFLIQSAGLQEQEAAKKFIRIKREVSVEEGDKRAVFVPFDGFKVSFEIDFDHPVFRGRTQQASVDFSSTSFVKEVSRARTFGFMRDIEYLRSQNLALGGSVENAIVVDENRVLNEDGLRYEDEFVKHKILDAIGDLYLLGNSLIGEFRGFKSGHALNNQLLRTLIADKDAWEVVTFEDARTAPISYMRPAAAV

Pseudomonas aeruginosa [3] = experiment: Antimicrobial activity against Pseudomonas aeruginosa PA3919 with (delta(mexAB-OprM)delta(mexXY)delta(MexZ) phenotype after 16 to 20 hrs by 2-fold microbroth dilution method; type: functional
Pseudomonas aeruginosa [4] = experiment: microbe, parasite or virus in culture
Description: Antimicrobial activity against Pseudomonas aeruginosa after 16 to 20 hrs by 2-fold microbroth dilution method

Klebsiella pneumoniae = experiment: microbe, parasite or virus in culture
Description: Antimicrobial activity against Klebsiella pneumoniae after 16 to 20 hrs by 2-fold microbroth dilution method

Klebsiella aerogenes = experiment: microbe, parasite or virus in culture
Description: Antimicrobial activity against Enterobacter aerogenes after 16 to 20 hrs by 2-fold microbroth dilution method

Escherichia coli = experiment: microbe, parasite or virus in culture
Description: Antimicrobial activity against Escherichia coli after 16 to 20 hrs by 2-fold microbroth dilution method

Acinetobacter sp. = experiment: Antimicrobial activity against Acinetobacter sp. after 16 to 20 hrs by 2-fold microbroth dilution method; type: functional
Citrobacter freundii = experiment: microbe, parasite or virus in culture
Description: Antimicrobial activity against Citrobacter freundii after 16 to 20 hrs by 2-fold microbroth dilution method

## C[C@@](CCn1ccc(CCc2ccccc2)cc1=O)(C(=O)NO)S(C)(=O)=O
Pseudomonas aeruginosa [1]
  MIC: 2 µg/mL (≈ 5.1 µM)
[2]
  IC50: 6 nM
Pseudomonas aeruginosa [3]
  MIC: 0.03 µg/mL (≈ 0.0764 µM)

## C[C@@](CCn1cc(F)c(-c2ccccc2)cc1=O)(C(=O)NO)S(C)(=O)=O
Pseudomonas aeruginosa [1]
  MIC: 0.5 µg/mL (≈ 1.31 µM)
Pseudomonas aeruginosa [4]
  MIC90: 4 µg/mL (≈ 10.5 µM)
Klebsiella pneumoniae
  MIC90: 8 µg/mL (≈ 20.9 µM)
Klebsiella aerogenes
  MIC90: 8 µg/mL (≈ 20.9 µM)
[2]
  IC50: 2.3 nM
Escherichia coli
  MIC90: 4 µg/mL (≈ 10.5 µM)
Pseudomonas aeruginosa [3]
  MIC: 0.015 µg/mL (≈ 0.0392 µM)
Acinetobacter sp.
  MIC90: 32 µg/mL (≈ 83.7 µM)
Citrobacter freundii
  MIC90: 8 µg/mL (≈ 20.9 µM)

## C[C@@](CCn1ccc(-c2ccc(-c3ccccn3)cc2)cc1=O)(C(=O)NO)S(C)(=O)=O
Pseudomonas aeruginosa [1]
  MIC: 0.5 µg/mL (≈ 1.13 µM)
[2]
  IC50: 1.3 nM
Pseudomonas aeruginosa [3]
  MIC: 0.015 µg/mL (≈ 0.034 µM)

## C[C@@](CCn1ccc(-c2ccccn2)cc1=O)(C(=O)NO)S(C)(=O)=O
Pseudomonas aeruginosa [1]
  MIC: 4 µg/mL (≈ 10.9 µM)
[2]
  IC50: 60 nM
Pseudomonas aeruginosa [3]
  MIC: 0.25 µg/mL (≈ 0.684 µM)

## Cc1cc(-c2ccccc2)cc(=O)n1CC[C@](C)(C(=O)NO)S(C)(=O)=O
Pseudomonas aeruginosa [1]
  MIC: 4 µg/mL (≈ 10.6 µM)
[2]
  IC50: 22 nM
Pseudomonas aeruginosa [3]
  MIC: 0.125 µg/mL (≈ 0.33 µM)

## COc1ncc(-c2ccc(-c3ccn(CC[C@](C)(C(=O)NO)S(C)(=O)=O)c(=O)c3)cc2)cn1
Pseudomonas aeruginosa [1]
  MIC: 0.5 µg/mL (≈ 1.06 µM)
[2]
  IC50: 2 nM
Pseudomonas aeruginosa [3]
  MIC: 0.03 µg/mL (≈ 0.0635 µM)

## C[C@@](CCn1ccc(-c2ccccc2)c(F)c1=O)(C(=O)NO)S(C)(=O)=O
Pseudomonas aeruginosa [1]
  MIC: 1 µg/mL (≈ 2.61 µM)
[2]
  IC50: 4.9 nM
Pseudomonas aeruginosa [3]
  MIC: 0.015 µg/mL (≈ 0.0392 µM)

## C[C@@](CCn1ccc(-c2ccc(F)cc2)cc1=O)(C(=O)NO)S(C)(=O)=O
Pseudomonas aeruginosa [1]
  MIC: 0.25 µg/mL (≈ 0.654 µM)
[2]
  IC50: 2.9 nM
Pseudomonas aeruginosa [3]
  MIC: 0.008 µg/mL (≈ 0.0209 µM)

## C[C@@](CCn1ccc(-c2ccc(Cl)cc2F)cc1=O)(C(=O)NO)S(C)(=O)=O
Pseudomonas aeruginosa [1]
  MIC: 0.125 µg/mL (≈ 0.3 µM)
Pseudomonas aeruginosa [4]
  MIC90: 1 µg/mL (≈ 2.4 µM)
Klebsiella pneumoniae
  MIC90: 1 µg/mL (≈ 2.4 µM)
Klebsiella aerogenes
  MIC90: 0.5 µg/mL (≈ 1.2 µM)
[2]
  IC50: 1 nM
Escherichia coli
  MIC90: 0.125 µg/mL (≈ 0.3 µM)
Pseudomonas aeruginosa [3]
  MIC: 0.008 µg/mL (≈ 0.0192 µM)
Acinetobacter sp.
  MIC90: 64 µg/mL (≈ 154 µM)
Citrobacter freundii
  MIC90: 0.5 µg/mL (≈ 1.2 µM)

## Cc1ccn(CC[C@](C)(C(=O)NO)S(C)(=O)=O)c(=O)c1
Pseudomonas aeruginosa [1]
  MIC: 64 µg/mL (≈ 212 µM)
[2]
  IC50: > 100 nM
Pseudomonas aeruginosa [3]
  MIC: 8 µg/mL (≈ 26.5 µM)

## COc1cnc(-c2ccc(-c3ccn(CC[C@](C)(C(=O)NO)S(C)(=O)=O)c(=O)c3)cc2)nc1
Pseudomonas aeruginosa [1]
  MIC: 0.25 µg/mL (≈ 0.529 µM)
[2]
  IC50: 1.2 nM
Pseudomonas aeruginosa [3]
  MIC: 0.03 µg/mL (≈ 0.0635 µM)

## COc1ccc(-c2ccn(CC[C@](C)(C(=O)NO)S(C)(=O)=O)c(=O)c2)cn1
Pseudomonas aeruginosa [1]
  MIC: 2 µg/mL (≈ 5.06 µM)
Pseudomonas aeruginosa [4]
  MIC90: 16 µg/mL (≈ 40.5 µM)
Klebsiella pneumoniae
  MIC90: 32 µg/mL (≈ 80.9 µM)
Klebsiella aerogenes
  MIC90: 32 µg/mL (≈ 80.9 µM)
[2]
  IC50: 6.4 nM
Escherichia coli
  MIC90: 8 µg/mL (≈ 20.2 µM)
Pseudomonas aeruginosa [3]
  MIC: 0.06 µg/mL (≈ 0.152 µM)
Acinetobacter sp.
  MIC90: > 64 µg/mL
Citrobacter freundii
  MIC90: 16 µg/mL (≈ 40.5 µM)

## C[C@@](CCn1ccc(C2=CCCCC2)cc1=O)(C(=O)NO)S(C)(=O)=O
Pseudomonas aeruginosa [1]
  MIC: 0.5 µg/mL (≈ 1.36 µM)
[2]
  IC50: 4.1 nM
Pseudomonas aeruginosa [3]
  MIC: 0.03 µg/mL (≈ 0.0814 µM)

## C[C@@](CCn1ccc(-c2ccc(-c3nccs3)cc2)cc1=O)(C(=O)NO)S(C)(=O)=O
Pseudomonas aeruginosa [1]
  MIC: 0.25 µg/mL (≈ 0.559 µM)
[2]
  IC50: 1.1 nM
Pseudomonas aeruginosa [3]
  MIC: 0.015 µg/mL (≈ 0.0335 µM)

## COc1ccc(-c2ccn(CC[C@](C)(C(=O)NO)S(C)(=O)=O)c(=O)c2)cc1F
Pseudomonas aeruginosa [1]
  MIC: 0.5 µg/mL (≈ 1.21 µM)
[2]
  IC50: 2 nM
Pseudomonas aeruginosa [3]
  MIC: 0.03 µg/mL (≈ 0.0727 µM)

## Cc1c(-c2ccccc2)ccn(CC[C@](C)(C(=O)NO)S(C)(=O)=O)c1=O
Pseudomonas aeruginosa [1]
  MIC: 0.5 µg/mL (≈ 1.32 µM)
[2]
  IC50: 6.7 nM
Pseudomonas aeruginosa [3]
  MIC: 0.015 µg/mL (≈ 0.0396 µM)

## CC(CCc1ncc(-c2ccccc2)cn1)(C(=O)NO)S(C)(=O)=O (racemic)
Pseudomonas aeruginosa [1]
  MIC: > 64 µg/mL
[2]
  IC50: > 100 nM
Pseudomonas aeruginosa [3]
  MIC: 4 µg/mL (≈ 11.4 µM)

## C[C@@](CCn1ccc(-c2cc(F)cc(F)c2)cc1=O)(C(=O)NO)S(C)(=O)=O
Pseudomonas aeruginosa [1]
  MIC: 1 µg/mL (≈ 2.5 µM)
[2]
  IC50: 3.9 nM
Pseudomonas aeruginosa [3]
  MIC: 0.03 µg/mL (≈ 0.0749 µM)

## C[C@@](CCn1ccc(-c2ccc(Cl)c(F)c2F)cc1=O)(C(=O)NO)S(C)(=O)=O
Pseudomonas aeruginosa [1]
  MIC: 0.125 µg/mL (≈ 0.287 µM)
Pseudomonas aeruginosa [4]
  MIC90: 0.25 µg/mL (≈ 0.575 µM)
Klebsiella pneumoniae
  MIC90: 0.5 µg/mL (≈ 1.15 µM)
Klebsiella aerogenes
  MIC90: 0.25 µg/mL (≈ 0.575 µM)
[2]
  IC50: 0.52 nM
Escherichia coli
  MIC90: 0.06 µg/mL (≈ 0.138 µM)
Pseudomonas aeruginosa [3]
  MIC: 0.008 µg/mL (≈ 0.0184 µM)
Acinetobacter sp.
  MIC90: > 64 µg/mL
Citrobacter freundii
  MIC90: 0.25 µg/mL (≈ 0.575 µM)

## COc1ccc(-c2ccn(CC[C@](C)(C(=O)NO)S(C)(=O)=O)c(=O)c2)cc1
Pseudomonas aeruginosa [1]
  MIC: 0.125 µg/mL (≈ 0.317 µM)
Pseudomonas aeruginosa [3]
  MIC: 0.008 µg/mL (≈ 0.0203 µM)

## C[C@@](CCn1ccc(-c2ccc3ccccc3c2)cc1=O)(C(=O)NO)S(C)(=O)=O
Pseudomonas aeruginosa [1]
  MIC: 0.125 µg/mL (≈ 0.302 µM)
Pseudomonas aeruginosa [4]
  MIC90: 1 µg/mL (≈ 2.41 µM)
Klebsiella pneumoniae
  MIC90: 0.5 µg/mL (≈ 1.21 µM)
Klebsiella aerogenes
  MIC90: 0.25 µg/mL (≈ 0.603 µM)
[2]
  IC50: 1.2 nM
Escherichia coli
  MIC90: 0.06 µg/mL (≈ 0.145 µM)
Pseudomonas aeruginosa [3]
  MIC: 0.008 µg/mL (≈ 0.0193 µM)
Acinetobacter sp.
  MIC90: > 64 µg/mL
Citrobacter freundii
  MIC90: 0.125 µg/mL (≈ 0.302 µM)

## COc1cccc(-c2ccn(CC[C@](C)(C(=O)NO)S(C)(=O)=O)c(=O)c2)c1
Pseudomonas aeruginosa [1]
  MIC: 1 µg/mL (≈ 2.54 µM)
[2]
  IC50: 3.7 nM
Pseudomonas aeruginosa [3]
  MIC: 0.03 µg/mL (≈ 0.0761 µM)

## C[C@@](CCn1ccc(-c2cccc(F)c2)cc1=O)(C(=O)NO)S(C)(=O)=O
Pseudomonas aeruginosa [1]
  MIC: 0.5 µg/mL (≈ 1.31 µM)
[2]
  IC50: 3 nM
Pseudomonas aeruginosa [3]
  MIC: 0.015 µg/mL (≈ 0.0392 µM)

## C[C@@](CCn1ccc(-c2ccccc2)nc1=O)(C(=O)NO)S(C)(=O)=O
Pseudomonas aeruginosa [1]
  MIC: 16 µg/mL (≈ 43.8 µM)
[2]
  IC50: 57 nM
Pseudomonas aeruginosa [3]
  MIC: 0.5 µg/mL (≈ 1.37 µM)
